From PubChem BioAssay (NCI)
“And” between values parts separate entries of the source, which are not always exact repeats. Equal values may be shown once.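 96-well plates; 48 h exposure; 5 concentrations. Endpoints by linear interpolation between flanking doses. Not reached: highest tested concentration assigned. Abbreviation: GI50, concentration required for 50% inhibition of growth. TGI: concentration producing complete growth inhibition.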

Columns and labels:
Test in all cases: DTP human tumour cell line panel, 48 h
CAKI-1 renal = tested on: CAKI-1 renal
HL-60(TB) leukemia = tested on: HL-60(TB) leukemia
HOP-62 NSCLC = tested on: HOP-62 NSCLC
HT29 colon = tested on: HT29 colon
KM12 colon = tested on: KM12 colon
OVCAR-8 ovarian = tested on: OVCAR-8 ovarian
SK-MEL-5 melanoma = tested on: SK-MEL-5 melanoma
SK-OV-3 ovarian = tested on: SK-OV-3 ovarian
SNB-75 CNS = tested on: SNB-75 CNS
U251 CNS = tested on: U251 CNS

Row | SMILES | TGI (CAKI-1 renal) | TGI (HL-60(TB) leukemia) | TGI (HOP-62 NSCLC) | TGI (HT29 colon) | TGI (KM12 colon) | TGI (OVCAR-8 ovarian) | TGI (SK-MEL-5 melanoma) | TGI (SK-OV-3 ovarian) | TGI (SNB-75 CNS) | TGI (U251 CNS) | GI50 (CAKI-1 renal) [µM] | GI50 (HL-60(TB) leukemia) | GI50 (HOP-62 NSCLC) | GI50 (HT29 colon) | GI50 (KM12 colon) | GI50 (OVCAR-8 ovarian) | GI50 (SK-MEL-5 melanoma) | GI50 (SK-OV-3 ovarian) | GI50 (SNB-75 CNS) | GI50 (U251 CNS)
1 | O=C1C2=C(c3ccccc31)C(c1ccccc1)NC(=S)N2 (centres undefined) | > 100 µM | 39.6 µM | > 100 µM | > 100 µM | > 100 µM | > 100 µM | > 100 µM | > 100 µM | 80 µM | > 100 µM | – | – | – | – | – | – | – | – | – | –
2 | N#C/C(=C\c1cccc(O)c1)C(N)=O | > 100 µM | 43.5 µM | > 100 µM | > 100 µM | > 100 µM | > 100 µM | > 100 µM | > 100 µM | 95.4 µM | > 100 µM | – | – | – | – | – | – | – | – | – | –
3 | CC(C)CC1=[N+]=C(NC#N)N=C(CCC(=O)Nc2ccccc2[N+](=O)[O-])C1 | > 100 µM | > 100 µM | > 100 µM | > 100 µM | > 100 µM | > 100 µM | > 100 µM | > 100 µM | > 100 µM | > 100 µM | – | – | – | – | – | – | – | – | – | –
4 | COC(=O)C1C2C=CC(C2)N1[C@@H](C)c1ccccc1 (some centres undefined) | > 100 µM | > 100 µM | > 100 µM | > 100 µM | > 100 µM | > 100 µM | > 100 µM | > 100 µM | > 100 µM | > 100 µM | – | – | – | – | – | – | – | – | – | –
5 | Fc1ccc2[nH]c3c(NCCCN4CCOCC4)ncnc3c2c1 | > 100 µM | > 100 µM | > 100 µM | > 100 µM | > 100 µM | > 100 µM | 73.1 µM | > 100 µM | > 100 µM | > 100 µM | 34.2 | 51.9 µM | 42.8 µM | 29 µM | 48.8 µM | 66.8 µM | 21.3 µM | > 100 µM | 37.5 µM | 48.8 µM
6 | OCc1ccc(-c2nn(Cc3ccccc3)c3ccccc23)o1 | > 63.5 µM and 34 µM | 40.5 µM and 58.3 µM | 53.8 µM and 30.2 µM | 32.2 µM and > 100 µM | 35.2 µM and 34.5 µM | 44.7 µM and 57 µM | 26.7 µM and 27.3 µM | 57.1 µM and 43.9 µM | 47.2 µM and > 100 µM | 28.5 µM and > 47.6 µM | – | 15.6 µM and 19 µM | 15.8 µM and 2.86 µM | 15 µM and 32.8 µM | 16.9 µM and 16.6 µM | 16.3 µM and 20.7 µM | 13.7 µM and 14.2 µM | 20.7 µM and 17.6 µM | 11.7 µM and > 100 µM | 8.07 µM and 12.4 µM
7 | COc1ccc2c3c(c(=O)n(C)c2c1OC)C=CC(C)(C)O3 | 38.4 µM | 29.8 µM | > 100 µM | 72.7 µM | 77 µM | > 100 µM | 30.1 µM | > 100 µM | 48.2 µM | > 100 µM | – | – | – | – | – | – | – | – | – | –
